Data: patent US20180289763A1, “COMPOSITION CONTAINING HERBAL MEDICINE EXTRACTS OF PINELLIA AND SCUTELLARIA FOR REDUCING SIDE EFFECTS DUE TO ANTICANCER DRUGS” (COMPREHENSIVE AND INTEGRATIVE MEDICINE INSTITUTE, priority 2013, published 2018)
Marks after values point to notes of the source that are not given here.

Legend:
[1] = Body weight and body weight gain in cisplatin-treated rats; type: in vivo, rat
Procedure: Body weights and body weight gains in each group that were measured after the first and fourth administrations of cisplatin and the necropsy are shown in Table 3.

[2] = tested on: cisplatin-induced gastrointestinal motility disorder; assay: Charcoal transit ratio in small intestine (gastrointestinal motility); type: in vivo, rat; details: for Distance charcoal meal transferred / GI charcoal transit ratio: during 30 min
From the text: Also, permeation of a substance through the digestive tract represents the motility in the entire gastrointestinal tract, measurement of a charcoal transit ratio in the small intestine is known to be very useful to diagnose whether or not there is a problem in digestive motility (Wintola et al., 2010), and a decrease in the charcoal transit ratio in the small intestine indicates a decrease in digestive motility such as the fecal retention, that is, constipation (Sagar et al., 2005; Meite et al., 2010).
A total length of a small intestine and a distance that a charcoal meal was transferred in the small intestine were measured, and the charcoal transit ratio was calculated, and then the results are shown in Table 4.

[3] = tested on: cisplatin-induced gastrointestinal motility disorder; assay: Fecal parameters (pellet number, wet and dry weight, water content); type: in vivo, rat; details: for Fecal Dry-weight / Fecal Water content / Fecal Wet-weight / Fecal pellet number: feces of 24 hours
[4] = tested on: fundus antioxidant defense system; assay: Fundus antioxidant defense system (MDA, GSH, CAT, SOD); type: in vivo, rat
From the text: Changes in MDA content, GSH content, SOD activity, and CAT activity in the fundus in each group that were observed are shown in Table 6.

tryptophan hydroxylase = assay: Pylorus tryptophan hydroxylase activity; type: in vivo, rat
From the text: Meanwhile, in the ondansetron administered group, a change in tryptophan hydroxylase activity similar to that in the cisplatin control was shown (FIG. 3(A)).

monoamine oxidase = assay: Pylorus monoamine oxidase activity; type: in vivo, rat
Procedure: Compared to the normal vehicle control, in the cisplatin control, a significant (p<0.01) decrease in activity of a serotonin lyase, monoamine oxidase, in pyloric tissues was shown, but in the Pinelliae Rhizoma and Scutellariae Radix extract 200, 100 and 5 mg/kg administered groups, compared to the cisplatin control, significant (p<0.01) increases in monoamine oxidase activity in pyloric tissues were dose-dependently shown. Meanwhile, in the ondansetron administered group, a change in monoamine oxidase activity similar to that in the cisplatin control was shown (FIG. 3(B)).

gastrin = assay: Gastrin content in pyloric tissues; type: in vivo, rat
From the text: Meanwhile, in the ondansetron administered group, a change in pylorus gastrin content similar to that in the cisplatin control was shown (FIG. 4(A)).

serotonin = assay: Serotonin content in pyloric tissues; type: in vivo, rat
From the text: Meanwhile, in the ondansetron administered group, a change in pylorus serotonin content similar to that in the cisplatin control was shown (FIG. 4(B)).

[5] = tested on: gastrin immunoreactive cells; assay: Gastrin immunoreactive cells in pyloric mucosa; type: in vivo, rat
From the text: As a result of observing histopathological changes, the numbers of gastrin and serotonin immunoreactive cells in the pyloric mucosa and the number of serotonin immunoreactive cells in the colonic mucosa that were detected are shown in Table 9.
Meanwhile, in the ondansetron administered group, a change in the number of gastrin immunoreactive cells in the pyloric mucosa similar to that in the cisplatin control was shown (Table 9, and FIG. 8).

[6] = tested on: serotonin immunoreactive cells; assay: Serotonin immunoreactive cells in pyloric and colonic mucosa; type: in vivo, rat
Procedure: (§1) In the examples, to provide an integrated medical method to reduce side effects caused by a chemotherapeutic agent with respect to a patient with a neoplastic disease, an effect of co-administration of a Pinelliae Rhizoma and Scutellariae Radix extract with respect to a digestive motility disorder caused by the chemotherapeutic agent was examined. In the following examples, rats with a gastrointestinal motility disorder caused by cisplatin were used. 2 mg/kg of cisplatin was administered once a week for 5 weeks, each of 200, 100 and 50 mg/kg of the Pinelliae Rhizoma and Scutellariae Radix extracts were administered at 14 days from the fourth administration of cisplatin, influences on gastrointestinal motility, damage to a digestive tract mucosa and physiology of digestive tract endocrine cells were observed as well as an antioxidative effect, experimental results were compared to an ondansetron 1 mg/kg administered group, wherein the ondansetron was known as a representative 5-HT3 receptor blocking agent to have an effective effect on a cisplatin-induced gastrointestinal motility disorder.
(§2) In this example, as laboratory animals, Sprague-Dawley, Slc: SD rats (6-week-old males, SLC, Shizuoka, Japan) were used. 60 healthy SPF rats were purchased, acclimated for 14 days, and 8 laboratory animals having uniform body weights (intact control: 249.13±12.12 g, 232˜264 g; cisplatin treated group: 225.35±10.58 g, 206˜243 g) when fasting after three weeks of cisplatin administration per each group were selected to be used in the experiment. […] All of the laboratory animals underwent fasting for about 18 hours at each of the first treatment of cisplatin, the first drug administration and the final necropsy (even in this period, drinking water was freely provided), individuals were identified using picric acid.
(§3) To cause a gastrointestinal motility disorder, 2 mg/kg of cisplatin (Sigma-Aldrich, St. Louise, Mo., USA) was dissolved in a saline solution, and the resulting solution was intraperitoneally administered at a dose of 1 ml/kg once a week for 5 weeks, thereby causing a chronic gastrointestinal motility disorder, and in the normal vehicle control, the same dose of a saline solution, instead of cisplatin, was intraperitoneally administered by the same method.
(§4) A Pinelliae Rhizoma and Scutellariae Radix herbal medicine was dissolved in sterile distilled water at a dose of 5 ml/kg (a body weight of the animal) three weeks after the first cisplatin administration, and forcibly and orally administered with a 5 ml syringe equipped with a metal zonde 30 minutes after the fourth cisplatin administration once a day for 14 days. The ondansetron was dissolved in a saline solution, subcutaneously administered with the same frequency as the Pinelliae Rhizoma and Scutellariae Radix herbal medicine at a dose of 1 ml/kg, and in the normal vehicle and cisplatin controls, instead of the Pinelliae Rhizoma and Scutellariae Radix extract or ondansetron, only the same dose of sterile distilled water was orally administered.
(§5) An effect on the gastrointestinal motility was evaluated by evaluating a charcoal transit ratio in the small intestine, effects on constipation were evaluated by observing a body weight, the change in fecal parameters (the fecal pellet number, the fecal weight, and the water content in the feces), the histopathological changes in the colon containing fecal pellets—changes in fecal pellet surface mucosa thickness, mucous producing cell number per mm2 of the mucosa and average mucosa thickness.

[7] = tested on: cisplatin-induced gastrointestinal tract damage (fundic and pyloric mucosa); assay: Histopathology of fundus and pylorus (mucosa thickness, degenerative mucosa percentage)
Procedure: as §1, §2, §3, §4, §5

[8] = tested on: cisplatin-induced colonic mucosa atrophy; type: in vivo, rat; details: 1 mg/kg s.c., 14 days
From the text: In the cisplatin control, considerable decreases in the mucous producing cell number per unit area (mm^2) and fecal pellet surface mucous thickness were caused along with the atrophy of the total colonic mucosa containing fecal pellets, and thus, compared to the normal vehicle control, significant (p<0.01) decreases in fecal pellet-containing colonic mucosa thickness, the mucous producing cell number in the mucosa and fecal pellet surface mucous thickness were shown.

[9] = cisplatin 2 mg/kg i.p. once a week for 5 weeks
[10] = cisplatin control (2 mg/kg i.p. weekly) compared to the normal vehicle control
[11] = cisplatin control (2 mg/kg i.p. weekly) compared to the normal vehicle control, 33 to 34 days after first cisplatin
[12] = 1 mg/kg s.c., 14 days, cisplatin-treated rats
[13] = 1 mg/kg s.c., 14 days, compared to the cisplatin control
[14] = cisplatin-treated rats, at sacrifice
[15] = compared to the cisplatin control

## N.N.[Cl][Pt][Cl] [Cisplatin, cis-diaminedichloroplatinum II]
[1]; [9]
  Body weight Sacrifice [C]: 195.13 ± 12.96^a g
  Body weight gain Test article dosing periods [C − B]: −29.88 ± 3.04^d g
  Body weight gain Total experiment periods [C − A]: −4.00 ± 7.01^d g
[1]; cisplatin 2 mg/kg i.p. once a week, three weeks after first administration
  Body weight At 4th cisplatin treatment [B]: 225.00 ± 13.90^a g
[1]; [10]
  change of body weight gain during the total 5-week experiment: −107.34%
  change of body weight gain for 2 weeks after the drug administration: −896.67%
[2]; [9]
  Distance charcoal meal transferred: 45.00 ± 11.08^a cm
  GI charcoal transit ratio: 35.61 ± 8.66^a %
[2]; [10]
  change of charcoal transit ratio in the small intestine: −53.09%
  change of distance that the charcoal meal was transferred in the small intestine: −53.06%
[3]; [9]
  Fecal Dry-weight: 5.14 ± 1.51 g
  Fecal Water content: 32.86 ± 6.45^d %
  Fecal Wet-weight: 7.66 ± 2.14^a g
[3]; cisplatin 2 mg/kg i.p. once a week for 5 weeks, 33 to 34 days after first cisplatin
  Fecal pellet number: 15.75 ± 5.50^a
[3]; [11]
  change of average dry weight of feces for 24 hours: −7.30%
  change of average water content in feces excreted for 24 hours: −54.47%
  change of average wet weight of the feces excreted for 24 hours: −62.34%
  change of total number of fecal pellets excreted for 24 hours: −61.23%
[4]; [9]
  Fundus Catalase: 44.06 ± 8.98^a nM/mim/mg tissue
  Fundus Glutathione: 1.22 ± 0.40^d μM/mg tissue
  Fundus Malondialdehyde: 16.24 ± 2.27^a nM/g tissue
  Fundus Superoxide dismutase: 71.96 ± 15.54^a nM/mim/mg tissue
[4]; [10]
  change of CAT activity in fundus tissues at the final sacrifice: −55.83%
  change of GSH content in the fundus tissue at the final sacrifice: −72.46%
  change of MDA content in fundus tissues at the final sacrifice: 327.30%
  change of SOD activity in the fundus tissue at the final sacrifice: −56.87%
Tryptophan hydroxylase; [10]
  change of tryptophan hydroxylase activity in pyloric tissues at the final sacrifice: 184.55%
Monoamine oxidase; [10]
  change of monoamine oxidase activity in pyloric tissues at the final sacrifice: −68.47%
gastrin; [10]
  change of gastrin content in pyloric tissues at the final sacrifice: −59.22%
serotonin; [10]
  change of serotonin content in pyloric tissues at the final sacrifice: 279.57%
[5]; [9]
  Number of Gastrin-IR cells in the pyloric mucosa: 11.75 ± 3.77^d cells/mm^2 of mucosa
[5]; [10]
  change of number of gastrin immunoreactive cells per unit area of the pyloric mucosa: −86.42%
[6]; [9]
  Number of Serotonin-IR cells in the colonic mucosa: 73.75 ± 11.79^a cells/mm^2 of mucosa
  Number of Serotonin-IR cells in the pyloric mucosa: 65.38 ± 11.02^a cells/mm^2 of mucosa
[6]; [10]
  change of number of serotonin immunoreactive cells per unit area of the colonic mucosa: 514.58%
  change of number of serotonin immunoreactive cells per unit area of the pyloric mucosa: 530.12%
[7]; [9]
  Fundus Degenerative mucosa percentage: 54.89 ± 10.97^d %/mucosa
  Fundus Total mucosa thickness: 436.02 ± 87.18^a μm
  Pylorus Degenerative mucosa percentage: 68.26 ± 10.44^a %/mucosa
  Pylorus Total mucosa thickness: 146.12 ± 26.03^a μm
[7]; [10]
  change of average fundic mucosa thickness: −47.53%
  change of pylorus average mucosa thickness: −61.72%

## Cc1nccn1CC1CCc2c(c3ccccc3n2C)C1=O (centres unmarked) [Ondansetron, ondansetron]
[1]; [12]
  Body weight Sacrifice [C]: 212.38 ± 4.66^ab g
  Body weight gain Test article dosing periods [C − B]: −14.50 ± 5.68^de g
  Body weight gain Total experiment periods [C − A]: 14.50 ± 11.64^de g
[1]; [13]
  change of body weight gain during the total 5-week experiment: 463.50%
  change of body weight gain for 2 weeks after the drug administration: 52.46%
[2]; [12]
  Distance charcoal meal transferred: 65.13 ± 10.68^ac cm
  GI charcoal transit ratio: 50.80 ± 8.85^ac %
[2]; [13]
  change of charcoal transit ratio in the small intestine: 42.66%
  change of distance that the charcoal meal was transferred in the small intestine: 44.72%
[3]; [12]
  Fecal Dry-weight: 5.27 ± 1.10 g
  Fecal Water content: 55.32 ± 13.07^ef %
  Fecal Wet-weight: 12.55 ± 3.71^ab g
  Fecal pellet number: 25.38 ± 6.95^ac
[3]; [13]
  change of average dry weight of feces for 24 hours: 2.48%
  change of average water content in feces excreted for 24 hours: 68.34%
  change of average wet weight of the feces excreted for 24 hours: 63.91%
  change of total number of fecal pellets excreted for 24 hours: 61.11%
[4]; [12]
  Fundus Catalase: 63.48 ± 12.39^ac nM/mim/mg tissue
  Fundus Glutathione: 1.81 ± 0.17^de μM/mg tissue
  Fundus Malondialdehyde: 9.67 ± 1.93^ac nM/g tissue
  Fundus Superoxide dismutase: 103.00 ± 22.32^ac nM/mim/mg tissue
[4]; [13]
  change of CAT activity in fundus tissues at the final sacrifice: 44.10%
  change of GSH content in the fundus tissue at the final sacrifice: 48.11%
  change of MDA content in fundus tissues at the final sacrifice: −40.45%
  change of SOD activity in the fundus tissue at the final sacrifice: 43.13%
Tryptophan hydroxylase; [13]
  change of tryptophan hydroxylase activity in pyloric tissues at the final sacrifice: −4.35%
Monoamine oxidase; [13]
  change of monoamine oxidase activity in pyloric tissues at the final sacrifice: 5.05%
gastrin; [13]
  change of gastrin content in pyloric tissues at the final sacrifice: −3.05%
serotonin; [13]
  change of serotonin content in pyloric tissues at the final sacrifice: −4.04%
[8]; [14]
  Colonic mucosa thickness: 192.08 ± 27.34^ac μm
  Fecal pellet surface mucous thickness: 28.00 ± 6.98^df μm
  Mucous producing cell number: 306.63 ± 78.94^ac cells/mm^2
[8]; [15]
  change of fecal pellet surface mucous thickness in the colon: 239.94%
  change of fecal pellet-containing colon average mucosa thickness: 72.06%
  change of mucous producing cell number in the colonic mucosa: 126.92%
[5]; [12]
  Number of Gastrin-IR cells in the pyloric mucosa: 11.63 ± 3.70^d cells/mm^2 of mucosa
[5]; [13]
  change of number of gastrin immunoreactive cells per unit area of the pyloric mucosa: −1.06%
[6]; [12]
  Number of Serotonin-IR cells in the colonic mucosa: 73.00 ± 17.65^a cells/mm^2 of mucosa
  Number of Serotonin-IR cells in the pyloric mucosa: 64.00 ± 10.45^a cells/mm^2 of mucosa
[6]; [13]
  change of number of serotonin immunoreactive cells per unit area of the colonic mucosa: −1.02%
  change of number of serotonin immunoreactive cells per unit area of the pyloric mucosa: −2.10%
[7]; [12]
  Fundus Degenerative mucosa percentage: 35.42 ± 4.69^de %/mucosa
  Fundus Total mucosa thickness: 592.37 ± 51.61^ac μm
  Pylorus Degenerative mucosa percentage: 41.08 ± 10.77^ac %/mucosa
  Pylorus Total mucosa thickness: 240.01 ± 36.08^ac μm
[7]; [13]
  change of average fundic mucosa thickness: 35.86%
  change of pylorus average mucosa thickness: 64.25%
